In patent publication US20250281397A1, “FORMULATIONS OF A PLASMA KALLIKREIN INHIBITOR” (KALVISTA PHARMACEUTICALS LIMITED, priority 2022, published 2025):

Key:
[1] = reported by Chilcote and Sinha, ARVO 2012; cited from earlier work
[2] = swallowable tablet, NCT04208412; cited from earlier work
[3] = BCS classification (ICH M9); assay type: physicochemical; settings: ICH guideline M9
Description: BCS class IV drugs are considered to be poorly soluble and poorly permeable meaning that they are likely to have poor oral bioavailability and/or the oral absorption may be so low that they cannot be given by the oral route. Due to their numerous unfavourable characteristics, BCS class IV drugs are particularly challenging to formulate as oral dosage forms and in particular as ODTs. Indeed, ODTs of BCS class IV drugs are not generally known in the art.

[4] = Phase 1 trial: single-dose 3-way crossover pharmacokinetic study, ODT vs film-coated tablets; assay type: in vivo, human; settings: single doses of 500 mg or 600 mg in ODT or FCT, healthy adult participants
Procedure: This study was an open label, randomized, single-dose, 3-way crossover pharmacokinetic study.
Thirty-six (36) healthy, adult, male and female subjects were enrolled.
The film coated tablets were those used in the phase 2 study described herein (NCT04208412).
There was a washout period of at least 4 days between the dose in Period 1 and Period 2 and the dose in Period 2 and Period 3.
An analysis of variance (ANOVA) was performed on the natural log (ln) transformed AUC0-t, AUC0-inf, AUC% extrap and Cmax, using the appropriate statistical procedure.

[5] = Plasma concentration after oral administration; assay type: in vivo; settings: following administration of a dosage amount of at least about 60 mg
[6] = literature / authorised label; cited from earlier work

N=C(N)c1ccc(CNC(=O)c2cnn(Cc3ccccc3)c2)cc1 [ASP-440]
oral availability [1]: poor oral availability

COCc1nn(Cc2ccc(Cn3ccccc3=O)cc2)cc1C(=O)NCc1nccc(OC)c1F [KVD900, N-[(3-fluoro-4-methoxypyridin-2-yl)methyl]-3-(methoxymethyl)-1-({4-[(2-oxopyridin-1-yl)methyl]phenyl}methyl) pyrazole-4-carboxamide]
phase 2 efficacy and safety endpoints [2]: met all of its phase 2 efficacy and safety endpoints | BCS classification [3]: BCS class IV | safety and tolerability [4]: well tolerated | concentration of KVD900 in plasma [5]: at least 500 ng/ml

Ecallantide
reported adverse reactions [6]: risks of anaphylactic reactions

N#Cc1cccc([C@@H](NCC2CC2)c2ccc(F)c(NC(=O)c3cc(C(F)(F)F)nn3-c3cccc(CN)c3)c2)c1 [Berotralstat, reference compound]
reported adverse reactions [6]: higher doses were associated with more gastrointestinal adverse effects

B1: lanadelumab: recombinant fully human IgG1 kappa light chain monoclonal antibody, plasma kallikrein inhibitor (antibody, chains of the INN, looked up, V domains shown)
VH: EVQLLESGGGLVQPGGSLRLSCAASGFTFSHYIMMWVRQAPGKGLEWVSGIYSSGGITVYADSVKGRFTISRDNSKNTLYLQMNSLRAEDTAVYYCAYRRIGVPRRDEFDIWGQGTMVTVSS
VL: DIQMTQSPSTLSASVGDRVTITCRASQSISSWLAWYQQKPGKAPKLLIYKASTLESGVPSRFSGSGSGTEFTLTISSLQPDDFATYYCQQYNTYWTFGQGTKVEIK
reported adverse reactions [6]: hypersensitivity, injection site pain, injection site erythema, and injection site bruising
